Assay results reported in PMC3864132 (Cancer immunology, immunotherapy : CII, 2013).

Columns and labels:
[1] = test system: metastatic melanoma patients; settings: in combination with IL-2, metastatic melanoma patients; cited from earlier work
HHD mice = settings: mean from 3 mice ± SD
HHD×ERG^pb/pb mice = settings: mouse, in vivo; SD

## gp100:209:217(210M): HLA-A*0201 restricted melanoma epitope (IMDQVPFSV; UniProt P40967 209-217, looked up, variant T210M)
[1]
  Median overall survival: significantly improved median overall survival

## QLWQFLLEL [ERG295]
HHD mice; HHD mice around 16 weeks old, 1 immunization
  ERG295 responsive cells per million splenocytes: 275 ± 45 per million splenocytes
HHD mice; HHD mice, 3 immunizations at 7-day intervals
  ERG295 responsive T-cells: 405 ± 120
HHD×ERG^pb/pb mice
  ERG295 responsive T-cells: 305 ± 49
  ERG295 responsive cells per million splenocytes: 177 ± 51 per million splenocytes
